From US20120309676A1, “Lantibiotic Salts” (priority 2010, published 2012)
Counter-ions that a name gives are not always drawn.

Tests used:
Aqueous solubility = format: physicochemical; details: for pH of saturated solution: aqueous saturated solution
Excerpt: Solubility as employed herein is used generically to refer to a distribution of a compound of formula (I) in a solvent (for example water, saline or an aqueous isotonic solution such as glucose) such that the formulation/composition resulting therefrom is substantially free of visible aggregates and for example is substantially transparent when viewed by the naked eye. Such a formulation would therefore include a whole range of formats which are suitable for infusion and/or injection such as solutions, suspensions, colloids and the like. […]

[1] = In vivo plasma half-life in mice; details: male, mouse, 29.76 mg/kg; CD-1 mice, IV dose of Example 1 (9.3 mL/Kg of 3.2 mg/mL solution); Compound 1 in plasma by LC-MS
Protocol: The in vivo half-life of Compound 1 in mice was determined by measurement of its plasma concentrations at various time points following IV dosing. 18 male CD-1 mice aged 7-9 weeks were dosed IV with a 9.3 mL/Kg dose of a 3.2 mg/mL solution of Example 1 in 15% hydroxypropyl-β-cyclodextrin/4.4% glucose/1 mM potassium phosphate (pH=7.6). Plasma samples were obtained at 10, 20, 30, 60, 120 and 240 min post-dose, sampling from 3 animals at each time point. Concentrations of Compound 1 in plasma were determined by LC-MS quantification.

[2] = test system: Staphylococcus aureus methicillin resistant ATCC 33591; assay: Mouse bacteraemia model, SC dosing; format: in vivo
Protocol: Groups of 6 male CD-1 (Crl.) derived mice weighing 24±2 g were used. Mice were inoculated intraperitoneally (IP) with an LD90-100 of Staphylococcus aureus methicillin resistant ATCC 33591 (1.1×10^7 CFU/mouse) in 0.5 mL of BHI broth containing 5% mucin. Example 1 and vancomycin were dissolved in 15% HPbetaCD/4.4% glucose/0.5 mM KH2PO4, pH 5.0 and doses of 1, 3, 5, 10 and 20 mg/Kg were administered subcutaneously (SC) to test animals at 0, 2 and 24 hour(s) after bacteria challenge. The dosing volume was 5 mL/Kg. Mortality was recorded once daily for 7 days (FIG. 1). The ED50 for each compound was determined by nonlinear regression.

[3] = test system: Methicillin Resistant Staphylococcus aureus (MRSA, ATCC 33591); assay: Neutropaenic mouse thigh infection model; format: in vivo
Protocol: In vivo efficacy of compounds of the present invention in the treatment of bacterial tissue infections was evaluated using a neutropaenic mouse thigh model.
Groups of 6 male ICR mice weighing 24±2 g were used. Test animals were immunosuppressed by 2 intraperitoneal injections of cyclophosphamide, the first at 150 mg/Kg 4 days before infection (day-4) and the second at 100 mg/Kg 1 day before infection (day-1). On day 0, individual animals were inoculated intramuscularly (IM) into the right thigh of test animals with 1.15×10^8 CFU/mouse of Methicillin Resistant Staphylococcus aureus (MRSA, ATCC 33591) suspended in 100 μL of sterile PBS, pH 7.4. Vehicle and test substances were administered intravenously (IV) at a dose volume of 6 mL/Kg, 2 and 14 hours after thigh infection. Example 1 and vancomycin were dissolved in 15% hydroxypropyl-β-cyclodextrin/4.4% glucose/1.5 mM potassium phosphate buffer, pH 7.0 and administered at doses of 5, 10, 20, 30 and 40 mg/Kg. At 26 hours after inoculation, muscle of the right thigh of each test mouse was harvested. From an additional group with no treatment, muscle of the right thigh was harvested at 2 hours after inoculation for the basal CFU determination. The removed muscle tissues were then homogenized in 3-4 mL of PBS, pH 7.4 with a ceramic mortar. Homogenates of 0.1 mL were used for serial 10-fold dilutions and plated on Mueller Hinton broth in 1.5% Bacto agar for CFU determination. […] Results (mean cfu/g) are graphically represented in FIG. 2.

[4] = test system: Methicillin Resistant Staphylococcus aureus (MRSA, ATCC 33591); assay: Neutropaenic mouse thigh infection model, further experiment; format: in vivo; details: IV 2 and 14 h after infection, 2.5-50 mg/Kg, FIG. 3
Protocol: In a further experiment, groups of 6 male ICR mice weighing 24±2 g were used. Test animals were immunosuppressed by 2 intraperitoneal injections of cyclophosphamide, the first at 150 mg/Kg 4 days before infection (day-4) and the second at 100 mg/Kg 1 day before infection (day-1). On day 0, individual animals were inoculated intramuscularly (IM) into the right thigh of test animals with 1.5×10^5 CFU/mouse of Methicillin Resistant Staphylococcus aureus (MRSA, ATCC 33591) suspended in 100 μL of sterile PBS, pH 7.4. Vehicle and test substances were administered intravenously (IV) at a dose volume of 8 mL/Kg, 2 and 14 hours after thigh infection. Example 1 was dissolved in 5% dextrose/1 mM potassium phosphate, pH 5.0 and administered at doses of 2.5, 5, 10, 15, 25 and 50 mg/Kg. At 26 hours after inoculation, muscle of the right thigh of each test mouse was harvested. From an additional group with no treatment, muscle of the right thigh was harvested at 2 hours after inoculation for the basal CFU determination. The removed muscle tissues were then homogenized in 3-4 mL of PBS, pH 7.4 with a ceramic mortar. Homogenates of 0.1 mL were used for serial 10-fold dilutions and plated on Mueller Hinton broth in 1.5% Bacto agar for CFU determination.

[5] = test system: Staphylococcus aureus methicillin resistant ATCC 33591; assay: Mouse bacteraemia model, second experiment, IV dosing; format: in vivo; details: for number of deaths: after 7 days, groups of 6 mice
Protocol: In a second experiment Groups of 6 male CD-1 (Crl.) derived mice weighing 24±2 g were used. Mice were inoculated intraperitoneally (IP) with an LD90-100 of Staphylococcus aureus methicillin resistant ATCC 33591 (1.35×10^8 CFU/mouse) in 0.5 mL of BHI broth containing 5% mucin. Example 1 was dissolved in 5% dextrose/1.5 mM potassium phosphate, pH 5.0 and doses of 1, 3, 5 and 10 mg/Kg were administered intravenously (IV) to test animals at 1 and 13 hour(s) after bacteria challenge. The dosing volume was 5 mL/Kg. Mortality was recorded once daily for 7 days.

[6] = aqueous, * = calculations made from two determinations

CC[C@H](C)[C@@H]1NC(=O)[C@@H]2NC(=O)[C@H](CC(C)C)NC(=O)[C@H](NC(=O)[C@@H]3CSC[C@@H](N)C(=O)N[C@@H](CO)C(=O)NCC(=O)N[C@@H](Cc4c[nH]c5ccccc45)C(=O)N[C@@H](C(C)C)C(=O)N3)[C@H](C)SC[C@H](NC(=O)[C@H](CCC(=O)O)NC1=O)C(=O)NCC(=O)N[C@H]1C(=O)N[C@@H](CC(C)C)C(=O)N[C@@H](C(C)C)C(=O)N[C@@H](CS[C@H]2C)C(=O)N[C@@H](C)C(=O)N[C@H](C(=O)NCc2cc(Cl)cc(Cl)c2)CS[C@H]1C [N-ethyl-D-glucamine salt]
pH of saturated solution (Aqueous solubility): 8.43
Solubility (Aqueous solubility; [6]): 11.16* mg/mL
Solubility (Aqueous solubility; salts of compound 1, listed as N-ethyl glucamine salt of compound 1): more than 10 mg/mL

CC[C@H](C)[C@@H]1NC(=O)[C@@H]2NC(=O)[C@H](CC(C)C)NC(=O)[C@H](NC(=O)[C@@H]3CSC[C@@H](N)C(=O)N[C@@H](CO)C(=O)NCC(=O)N[C@@H](Cc4c[nH]c5ccccc45)C(=O)N[C@@H](C(C)C)C(=O)N3)[C@H](C)SC[C@H](NC(=O)[C@H](CCC(=O)O)NC1=O)C(=O)NCC(=O)N[C@H]1C(=O)N[C@@H](CC(C)C)C(=O)N[C@@H](C(C)C)C(=O)N[C@@H](CS[C@H]2C)C(=O)N[C@@H](C)C(=O)N[C@H](C(=O)NCc2cc(Cl)cc(Cl)c2)CS[C@H]1C [diethanolamine salt]
pH of saturated solution (Aqueous solubility): 8.78
Solubility (Aqueous solubility; [6]): 6.94* mg/mL
Solubility (Aqueous solubility; salts of compound 1, listed as diethanolamine salt of compound 1): more than 5 mg/mL

CC[C@H](C)[C@@H]1NC(=O)[C@@H]2NC(=O)[C@H](CC(C)C)NC(=O)[C@H](NC(=O)[C@@H]3CSC[C@@H](N)C(=O)N[C@@H](CO)C(=O)NCC(=O)N[C@@H](Cc4c[nH]c5ccccc45)C(=O)N[C@@H](C(C)C)C(=O)N3)[C@H](C)SC[C@H](NC(=O)[C@H](CCC(=O)O)NC1=O)C(=O)NCC(=O)N[C@H]1C(=O)N[C@@H](CC(C)C)C(=O)N[C@@H](C(C)C)C(=O)N[C@@H](CS[C@H]2C)C(=O)N[C@@H](C)C(=O)N[C@H](C(=O)NCc2cc(Cl)cc(Cl)c2)CS[C@H]1C [tromethamine salt]
pH of saturated solution (Aqueous solubility): 8.53
Solubility (Aqueous solubility; [6]): 2.38 mg/mL

CC[C@H](C)[C@@H]1NC(=O)[C@@H]2NC(=O)[C@H](CC(C)C)NC(=O)[C@H](NC(=O)[C@@H]3CSC[C@@H](N)C(=O)N[C@@H](CO)C(=O)NCC(=O)N[C@@H](Cc4c[nH]c5ccccc45)C(=O)N[C@@H](C(C)C)C(=O)N3)[C@H](C)SC[C@H](NC(=O)[C@H](CCC(=O)O)NC1=O)C(=O)NCC(=O)N[C@H]1C(=O)N[C@@H](CC(C)C)C(=O)N[C@@H](C(C)C)C(=O)N[C@@H](CS[C@H]2C)C(=O)N[C@@H](C)C(=O)N[C@H](C(=O)NCc2cc(Cl)cc(Cl)c2)CS[C@H]1C [ethanolamine salt]
pH of saturated solution (Aqueous solubility): 8.74
Solubility (Aqueous solubility; [6]): 10.5* mg/mL
Solubility (Aqueous solubility; salts of compound 1, listed as ethanolamine salt of compound 1): more than 10 mg/mL

CCC(C)[C@@H]1NC(=O)[C@@H]2NC(=O)[C@H](CC(C)C)NC(=O)[C@H](NC(=O)[C@H]3CSC[C@H](N)C(=O)N[C@@H](CO)C(=O)NCC(=O)N[C@@H](Cc4c[nH]c5ccccc45)C(=O)N[C@@H](C(C)C)C(=O)N3)[C@H](C)SC[C@H](NC(=O)[C@H](CCC(=O)O)NC1=O)C(=O)NCC(=O)N[C@@H]1C(=O)N[C@@H](CC(C)C)C(=O)N[C@@H](C(C)C)C(=O)N[C@@H](CS[C@H]2C)C(=O)N[C@@H](C)C(=O)N[C@H](C(=O)NCc2cc(Cl)cc(Cl)c2)CS[C@H]1C (stereo partly drawn) [Compound 1, Deoxyactagardine B (3,5-dichlorobenzylamine) monocarboxamide]
half-life [1]: ~2 h

CN[C@H](CC(C)C)C(=O)N[C@H]1C(=O)N[C@@H](CC(N)=O)C(=O)N[C@H]2C(=O)N[C@H]3C(=O)N[C@H](C(=O)N[C@H](C(=O)O)c4cc(O)cc(O)c4-c4cc3ccc4O)[C@H](O)c3ccc(c(Cl)c3)Oc3cc2cc(c3O[C@@H]2O[C@H](CO)[C@@H](O)[C@H](O)[C@H]2O[C@H]2C[C@](C)(N)[C@H](O)[C@H](C)O2)Oc2ccc(cc2Cl)[C@H]1O [vancomycin, reference compound]
antimicrobial effect against S. aureus (MRSA) in mice ([2]; 3, 5, 10 and 20 mg/Kg×3, SC): significant antimicrobial effect
ED50 ([2]; Staphylococcus aureus, ATCC33591, CD-1 mice, SC at 0, 2 and 24 h after challenge, mortality over 7 days, nonlinear regression, read-out: estimated ED50): 3 mg/kg
antimicrobial effect ([3]; IV at 5, 10, 20, 30 and 40 mg/Kg×2, 2 and 14 h after thigh infection, harvest at 26 h): significant antimicrobial effect
reductions of CFU/g ([3]; at 30 mg/kg and above, IV ×2, thigh muscle at 26 h): > 100 fold
bacterial counts in the thigh tissue [4]: dose dependent reduction
number of deaths ([5]; 1 mg/kg IV at 1 and 13 h after challenge): 5
number of deaths ([5]; 3 mg/kg IV at 1 and 13 h after challenge): 3
number of deaths ([5]; 5 mg/kg IV at 1 and 13 h after challenge): 1
number of deaths ([5]; 10 mg/kg IV at 1 and 13 h after challenge): 0
survival of mice after 7 days ([5]; 1, 3, 5 and 10 mg/kg): dose-dependent incease in survival

CC[C@H](C)[C@@H]1NC(=O)[C@@H]2NC(=O)[C@H](CC(C)C)NC(=O)[C@H](NC(=O)[C@@H]3CSC[C@@H](N)C(=O)N[C@@H](CO)C(=O)NCC(=O)N[C@@H](Cc4c[nH]c5ccccc45)C(=O)N[C@@H](C(C)C)C(=O)N3)[C@H](C)SC[C@H](NC(=O)[C@H](CCC(=O)O)NC1=O)C(=O)NCC(=O)N[C@H]1C(=O)N[C@@H](CC(C)C)C(=O)N[C@@H](C(C)C)C(=O)N[C@@H](CS[C@H]2C)C(=O)N[C@@H](C)C(=O)N[C@H](C(=O)NCc2cc(Cl)cc(Cl)c2)CS[C@H]1C [triethanolamine salt]
pH of saturated solution (Aqueous solubility): 8.43
Solubility (Aqueous solubility; [6]): 1.04 mg/mL
